In US6696495B2, “Treatment of disorders secondary to organic impairments” (Snowden Pharmaceuticals, LLC, priority 1998, dated 2004):
Where two headings read alike, the source gives them in different places.

Experiments:
[1] = tested on: Sexual Obsessive-Compulsive Behavior, ADD and Executive Function; test: Case history 6, Sibutramine Patient No. 77; type: in vivo, human
[2] = tested on: Sexual Gender Choice Change; test: Case history 7, Sibutramine Patient No. 99; type: in vivo, human; conditions: sibutramine 10 mg every morning; person
[3] = tested on: Tourette's Disease Tics, Violence, and ADHD; test: Case history 8, Sibutramine Patient No. 47; type: in vivo, human
[4] = tested on: Asocial Behavior, Violence, and Hyposexuality; test: Case history 10, Sibutramine Patient No. 54; type: in vivo, human
Heroin Craving and Abuse = type: in vivo, human
Source text: 21. Relief of Heroin Craving and Abuse (Problem No. 12) Sibutramine Patient No. 165
A single person was introduced to heroin by snorting when they were particularly stressed with the anger and pain of losing a boyfriend. They had always had difficulty recovering from pain, anger and loss but the heroin rapidly made them feel “normal”. They quickly moved to the intravenous route and reached a maximum intake of 5 bags per day (approximately $100/day in cost) for the next 6 months when they were discovered to have charged large amounts on their charge cards. They were then hospitalized in a drug detoxification hospital for three weeks but soon relapsed after discharge. After their second round of treatment they were referred to the care of a psychiatrist (the inventor herein). The patient described constant, unrelenting cravings for heroin and expressed that it would be “next to impossible” to remain free of the drug for any length of time. […] Out of desperation, the dose was increased to 15 mg in the AM and within an hour they noted a marked change. […] They now felt the “normal” feeling that heroin had given them and no longer noted any anger, hurt or distress.
They gained 15 pounds the first 2 weeks on the 15 mg of sibutramine in the morning. This was partially relieved by adding a 5 mg dose of sibutramine in the afternoon. This effect on the heroin craving and hurt is therefore clearly separate from the FDA-approved anorexic effect of sibutramine. […] They are now working at two jobs to pay their back debts.

[5] = tested on: Dementia, Alzheimer's-Type; test: Case history 24; type: in vivo, human
Protocol: 24. The Symptoms Due to Dementia, Alzheimer's-Type
person one was diagnosed with Dementia. The symptoms they suffered from included memory loss and severe confusion. They tried a variety of treatments to relieve their symptoms including choldine esterase inhibitors, antidepressants, Ritilin, and aterol. […] They were then tested off of sibutramine. […] They began to suffer from a lowered I.Q. and their memory deteriorated.

[6] = Overall clinical observations in the patients treated with sibutramine; type: in vivo, human
Source text: The term sibutramine as used herein means compounds of sibutramine hydrochloride monohydrate, more specifically N,N-dimethyl-1-[1-(4-chlorophenyl)cyclobutyl]-3-methylbutylamine hydrochloride preferably in its monohydrate form, and enantiomers and analogues thereof, as described in U.S. Pat. Nos. 4,746,680, 4,929,629 and 5,436,272. Sibutramine is believed to inhibit reuptake of norepinephrine, serotonin and dopamine thereby intensifying their effects in the brain. Sibutramine is commercially available as MERIDIA®, Knoll Pharmaceutical Company, Mount Olive, N.J. Capsules are presently available with discrete dosages of 5, 10 and 15 mg for oral administration. The sibutramine is administered in a pharmaceutically active dose. The preferred dosage is about 5 mg three times a day but there is variation between patients for the best dose. It is believed that the cytochrome P450 system differs in individuals and the dose must be determined empirically in each patient. The effect of the cytochrome P450 system on metabolism of psychotropic drugs is discussed in “Intercom: The Experts Converse”, published by The Journal of Clinical Psychiatry, November 1995. […] It is possible that higher or lower doses can be used depending upon each individual. Therefore, more flexibility in available dosage is needed. Furthermore, means of administration such as injection, rectal suppository, or transdermal patches may be utilized. Finally, a long-acting slow-release means such as oral tablet or capsule would be the preferred route in view of the rapid metabolism noted (5 hour duration of action usually) in most of the patients.
Although the use of sibutramine has been described for the treatment of conditions such as obesity, depression, diabetic hyperglycemia, hyperlipidemia, senile dementia and related conditions, and Parkinson's disease, it has been discovered that sibutramine can be successfully used in treating other problems unrelated to these conditions. […] For example, patients with ADD previously treated with stimulants found it easier to eat when treated with sibutramine and gained weight. […] It was generally necessary to continue anti-depressant therapy along with the sibutramine therapy.
Above and beyond the known effects of sibutramine on serotonin, dopamine and norepinephrine activation, there is believed to be an effect of this medication on the endorphic opiate neurotransmitter system which is evident in the patients who have been relieved of pain, rage, anger, self-mutilation and particularly addiction to heroin. […] It would appear that sibutramine activates endorphins or, at the very least, modifies the endorphinergic opioid systems to promote serenity and lack of pain and stress, and to reduce craving for heroin. Such a mechanism which was previously unsuspected may have also contributed to the therapeutic effects of sibutramine herein described for PTSD, asocial behavior and fibromyalgic pain which have not been helped by serotonin, dopamine and norepinephrine potentiators. This is in contradistinction to the therapeutic effects of sibutramine on ADHD, chronic fatigue, and the symptoms of Tourette's and non-Tourette's diseases. Finally, a differentiation between the serotonin, dopamine and norepinephrine potentiation versus the opiate-like therapeutic effects of sibutramine may be made in terms of duration of action, whereas the serotonin, dopamine, norepinephrine agonist effects lasted in most patients for only 4-6 hours (therefore requiring tid dosage), the opiate effects appear to last all day and require only a single AM dosage.
These benefits were lost rapidly when either the patient was taken off sibutramine or when steroids, such as cortisone were concomitantly administered.

[7] = tested on: Tourette's Tics, Asocial Behavior, and Relief of Hyposexuality; conditions: sibutramine 5 mg three times a day
[8] = tested on: Fibromyalgia—Chronic Fatigue Syndrome

For CC(C)CC(N(C)C)C1(c2ccc(Cl)cc2)CCC1.Cl (stereo not shown) [sibutramine, N,N-dimethyl-1-[1-(4-chlorophenyl)cyclobutyl]-3-methylbutylamine hydrochloride], the “concentration, organization, sexual obsessive-compulsive problems” value ([1]; sibutramine 10 mg every morning, then 5 mg three times a day by mouth, person) was “could concentrate, organize, and no longer had the sexual obsessive-compulsive problems”, the “duration of effects of each dose” value ([1]; sibutramine by mouth) was “about five” and the sexual interest [2] was “an increased interest in sex generally, but for the first time this interest included females as well as males”. For the same compound, the “tics, aggressive outbursts, concentration” value ([3]; human, in vivo) was “rapidly relieved their tics, their aggressive outbursts, and helped their concentration”, the wear-off of effects ([3]; sibutramine 10 mg every morning) was “wore off quickly after noon with a rapid return of all symptoms” and the “tics, violence, concentration problems” value ([3]; sibutramine 10 mg three times daily) was “loss of verbal and motor tics, violence, and concentration problems”. The “speech, compulsive acts, social activity, sexual interest” value ([4]; sibutramine 5 mg tid) was “a decrease in repetitive speech, hissing, and compulsive acts, an increase in social activity and sexual interest, and increased speech generally”, the violence / manageability ([4]; sibutramine 10 mg daily, person) was “again became calm and manageable” and the ““nodding out” side effects” value (Heroin Craving and Abuse; compared with heroin) was “none of the negative “nodding out” side effects”. For the same compound, the weight gain (Heroin Craving and Abuse; first 2 weeks on 15 mg in the morning) was 15 pounds, the “anger, hurt and narcotic craving” value (Heroin Craving and Abuse; sibutramine 5 mg tid po, person) was “no relief from their anger and hurt nor from their narcotic craving” and the “anger, hurt and narcotic craving” value (Heroin Craving and Abuse; sibutramine 15 mg in the AM) was “a complete relief”. For the same compound, the duration of effect (Heroin Craving and Abuse; sibutramine 15 mg in the AM) was “extended for the whole day”, the “time to marked change” value (Heroin Craving and Abuse; sibutramine 15 mg in the AM) was “an hour” and the side effects (Heroin Craving and Abuse; sibutramine 15 mg in the morning) was “a dry mouth and a craving for food”. For the same compound, the “memory loss and severe confusion” value ([5]; sibutramine 15 mg once a day, person one) was “their symptoms quickly dissipated”, the symptoms off sibutramine ([5]; taken off sibutramine) was “their symptoms reappeared” and the highest dose ([6]; 15 mg 3 times daily) was 45 mg. For the same compound, the neurogenesis ([6]; believed, evidenced by increase in the hippocampus, enhanced mental and motor skills) was “induced neurogenesis”, the lowest effective dose ([6]; human, in vivo) was 0.25 mg daily and the onset of improvement ([6]; human, in vivo) was “alleviated within minutes or hours of treatment”. The “duration of serotonin, dopamine, norepinephrine agonist effects” value ([6]; most patients) was 4 to 6 h, the depression ([6]; patients removed from anti-depressant medication) was “became depressed when removed from the anti-depressant medication and treated with sibutramine alone” and the “symptoms of Post Traumatic Stress” value ([6]; patients with Post Traumatic Stress) was “relieved the symptoms of Post Traumatic Stress”. The “duration of opiate effects” value ([6]; single AM dosage) was “last all day”, the duration of action ([6]; usually, in most of the patients) was 5 h and the ADHD [7] was “his ADHD improved”. For the same compound, the “communication and social skills” value [7] was “their communication and social skills improved”, the “motor and vocal tics, obsessive compulsive component” value ([7]; child) was “the motor and vocal tics associated with Tourette's Disease were decreased as well as the obsessive compulsive component” and the sleep ([8]; first night after sibutramine) was “difficulty in getting to sleep that first night”. The alertness and concentration ([8]; sibutramine 5 mg tid p.o.) was “became alert and able to concentrate”, the fatigue and energy ([8]; sibutramine 5 mg tid p.o.) was “their fatigue diminished and their energy increased substantially” and the pain points ([8]; sibutramine 5 mg tid p.o.) was “their pain points were still tender but that the burning sensation at these points had abated within 4 days”. For the same compound, the “time to response after the first 5 mg capsule” value ([8]; sibutramine 5 mg tid p.o. Person) was ≤ 2 h.
